Assay results taken from ChEMBL document CHEMBL3785004, “New antimalarial norterpene cyclic peroxides from Xisha Islands sponge Diacarnus megaspinorhabdosa” (Bioorg Med Chem Lett, 2016).
pIC50: −log10 of the molar value.

Legend:
Plasmodium falciparum [1] = experiment: Antimalarial activity against chloroquine resistant Plasmodium falciparum W2 after 72 hrs by LDH assay; format: functional, organism-based; conditions: W2, 72 h
Plasmodium falciparum [2] = experiment: Antimalarial activity against chloroquine sensitive Plasmodium falciparum D6 after 72 hrs by LDH assay; format: functional, organism-based; conditions: D6, 72 h
[3] = Selectivity index, ratio of IC50 for Vero cells to IC50 for chloroquine resistant Plasmodium falciparum W2; format: toxicity, cell-based; conditions: monkey, read-out: Ratio IC50
[4] = Selectivity index, ratio of IC50 for Vero cells to IC50 for chloroquine sensitive Plasmodium falciparum D6; format: toxicity, cell-based; conditions: monkey, read-out: Ratio IC50

With C=C1CCCC(C)(C)C1(O)CC/C(C)=C/CC[C@@]1(C)CC[C@H]([C@H](C)C(=O)O)OO1 (some centres undefined) the pIC50 (Plasmodium falciparum [1]) was 5.31, the pIC50 (Plasmodium falciparum [2]) was 5.14 and the selectivity ratio [3] was 2.4. It also gave a selectivity ratio [4] of 1.6.
For CC1=C(CC[C@]2(C)CC[C@H]([C@@H](C)C(=O)O)OO2)C(C)(C)CCC1, the pIC50 (Plasmodium falciparum [1]) was 5.26, the pIC50 (Plasmodium falciparum [2]) was 5.09 and the selectivity ratio [3] was 2.6. The selectivity ratio [4] was 1.7.
For C=C1CCCC(C)(C)C1(O)CC/C(C)=C/CC[C@@]1(C)CC[C@H]([C@H](C)C(=O)OC)OO1 (some centres undefined), the pIC50 (Plasmodium falciparum [1]) was 5.80, the pIC50 (Plasmodium falciparum [2]) was 5.66 and the selectivity ratio [3] was 7. For the same compound, the selectivity ratio [4] was 5.1.
COC(=O)[C@@H](C)[C@H]1CC[C@](C)(CC/C=C(\C)CCC2(O)C(C)CCCC2(C)C)OO1 (some centres undefined) gave a pIC50 (Plasmodium falciparum [1]) of 5.38, a pIC50 (Plasmodium falciparum [2]) of 5.25 and a selectivity ratio [3] of 2.6. The selectivity ratio [4] was 2.
Work on COC(=O)[C@@H](C)[C@H]1CC[C@](C)(CC/C=C(\C)CCC2(C)C(C)CCCC2(C)O)OO1 (some centres undefined) yielded a pIC50 (Plasmodium falciparum [1]) of 5.52, a pIC50 (Plasmodium falciparum [2]) of 5.18 and a selectivity ratio [3] of 3.7. The selectivity ratio [4] was 1.7.
For CC1=C(CC/C(C)=C/CC[C@@]2(C)CC[C@H]([C@H](C)C(=O)O)OO2)C(C)(C)CCC1, the pIC50 (Plasmodium falciparum [1]) was 5.25, the pIC50 (Plasmodium falciparum [2]) was 5.07 and the selectivity ratio [3] was 2.2. For the same compound, the selectivity ratio [4] was 1.4.
C[C@@H]1CC[C@H]2[C@@H](C)C(=O)O[C@@H]3O[C@@]4(C)CC[C@@H]1[C@]32OO4 [ARTEMISININ] showed a pIC50 (Plasmodium falciparum [1]) of 6.85.
With COC(=O)[C@H](C)[C@H]1CC[C@@](C)(CCC2=C(C)C(=O)CCC2(C)C)OO1 [DIACARPEROXIDE A] the pIC50 (Plasmodium falciparum [1]) was 5.72, the pIC50 (Plasmodium falciparum [2]) was 5.70 and the selectivity ratio [3] was 6.8. For the same compound, the selectivity ratio [4] was 6.5.
